According to patent publication EP4745135A1 (Gluetacs Therapeutics (Shanghai) Co., Ltd., priority 2023, dated 2025):

Columns and labels:
[1] = molecular target: T1, IKZF3 (Homo sapiens, UniProt Q96SW2+Q9UKT9); assay: Western blot, degradation of substrate protein in hPBMCs; format: cell-based; conditions: Western blot, 24 hours of compound treatment, compounds tested at 50 nM and 500 nM (concentration for the table not stated)
T1 construct: effects of the compounds of the present disclosure on the expression of target proteins in cells; endogenous in cells; host or cells: human PBMCs (Milecell Biotechnologies)
T1 sequence (Q9UKT9 whole entry): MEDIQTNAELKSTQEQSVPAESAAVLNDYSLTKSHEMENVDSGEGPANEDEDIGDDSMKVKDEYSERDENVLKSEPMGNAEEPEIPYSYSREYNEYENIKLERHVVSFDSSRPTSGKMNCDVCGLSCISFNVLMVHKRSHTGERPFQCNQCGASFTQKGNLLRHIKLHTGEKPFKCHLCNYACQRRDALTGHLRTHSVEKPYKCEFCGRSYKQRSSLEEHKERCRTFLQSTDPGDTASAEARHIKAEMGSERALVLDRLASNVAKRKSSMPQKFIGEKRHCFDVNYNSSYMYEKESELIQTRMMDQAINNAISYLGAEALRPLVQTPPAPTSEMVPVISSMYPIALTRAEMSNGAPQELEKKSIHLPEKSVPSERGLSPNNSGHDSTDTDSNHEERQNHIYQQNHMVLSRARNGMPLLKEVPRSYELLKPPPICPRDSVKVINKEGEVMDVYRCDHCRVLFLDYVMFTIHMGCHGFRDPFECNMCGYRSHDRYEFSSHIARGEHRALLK
T1 sequence (Q96SW2 whole entry): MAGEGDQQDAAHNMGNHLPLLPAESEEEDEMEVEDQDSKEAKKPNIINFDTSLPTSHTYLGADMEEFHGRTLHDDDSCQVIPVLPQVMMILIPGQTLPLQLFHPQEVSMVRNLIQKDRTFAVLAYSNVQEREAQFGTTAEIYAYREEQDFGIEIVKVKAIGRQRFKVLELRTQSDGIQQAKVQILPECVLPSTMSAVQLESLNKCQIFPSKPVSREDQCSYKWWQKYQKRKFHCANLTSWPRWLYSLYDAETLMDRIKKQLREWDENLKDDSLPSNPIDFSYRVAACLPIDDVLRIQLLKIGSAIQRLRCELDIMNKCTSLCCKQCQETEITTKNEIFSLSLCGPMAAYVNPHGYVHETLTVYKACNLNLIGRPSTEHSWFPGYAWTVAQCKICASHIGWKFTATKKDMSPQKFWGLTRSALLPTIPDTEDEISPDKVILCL
T1 sequence (Q16531 whole entry partner): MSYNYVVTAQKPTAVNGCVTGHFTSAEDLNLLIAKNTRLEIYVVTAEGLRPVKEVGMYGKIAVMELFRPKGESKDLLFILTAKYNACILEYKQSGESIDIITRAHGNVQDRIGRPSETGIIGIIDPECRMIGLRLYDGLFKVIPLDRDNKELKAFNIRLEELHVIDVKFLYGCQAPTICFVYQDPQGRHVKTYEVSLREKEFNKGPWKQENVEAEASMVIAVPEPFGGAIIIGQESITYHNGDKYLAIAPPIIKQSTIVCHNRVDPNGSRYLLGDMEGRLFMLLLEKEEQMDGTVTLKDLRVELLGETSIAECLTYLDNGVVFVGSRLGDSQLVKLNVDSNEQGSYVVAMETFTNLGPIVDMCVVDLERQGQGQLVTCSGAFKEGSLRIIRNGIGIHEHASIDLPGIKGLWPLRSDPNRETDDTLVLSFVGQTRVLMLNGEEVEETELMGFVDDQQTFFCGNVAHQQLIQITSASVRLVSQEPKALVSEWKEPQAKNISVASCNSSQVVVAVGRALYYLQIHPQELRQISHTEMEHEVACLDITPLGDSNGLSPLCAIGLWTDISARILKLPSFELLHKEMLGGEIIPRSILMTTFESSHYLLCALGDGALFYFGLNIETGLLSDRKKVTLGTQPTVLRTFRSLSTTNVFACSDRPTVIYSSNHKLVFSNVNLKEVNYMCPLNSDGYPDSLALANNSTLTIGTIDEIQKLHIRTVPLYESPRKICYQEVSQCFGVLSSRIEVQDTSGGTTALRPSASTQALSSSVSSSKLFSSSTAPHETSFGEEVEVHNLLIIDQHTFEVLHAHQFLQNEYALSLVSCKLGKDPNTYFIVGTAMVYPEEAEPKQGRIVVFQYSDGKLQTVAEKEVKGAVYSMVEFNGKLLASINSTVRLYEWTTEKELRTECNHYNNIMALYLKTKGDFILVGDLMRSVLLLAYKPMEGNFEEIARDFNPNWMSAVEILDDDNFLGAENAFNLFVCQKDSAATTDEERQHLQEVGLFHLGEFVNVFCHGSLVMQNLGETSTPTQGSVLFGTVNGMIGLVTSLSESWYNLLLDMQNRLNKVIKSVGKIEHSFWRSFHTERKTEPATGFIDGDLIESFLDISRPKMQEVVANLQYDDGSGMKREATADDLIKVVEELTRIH

[2] = molecular target: T2, IKZF2 (Homo sapiens, UniProt Q96SW2+Q9UKS7); assay: as above; format: cell-based; conditions: Western blot, 24 hours of compound treatment, compounds tested at 50 nM and 500 nM (concentration for the table not stated)
T2 construct: effects of the compounds of the present disclosure on the expression of target proteins in cells; endogenous in cells; host or cells: human PBMCs (Milecell Biotechnologies)
T2 sequence (Q9UKS7 whole entry): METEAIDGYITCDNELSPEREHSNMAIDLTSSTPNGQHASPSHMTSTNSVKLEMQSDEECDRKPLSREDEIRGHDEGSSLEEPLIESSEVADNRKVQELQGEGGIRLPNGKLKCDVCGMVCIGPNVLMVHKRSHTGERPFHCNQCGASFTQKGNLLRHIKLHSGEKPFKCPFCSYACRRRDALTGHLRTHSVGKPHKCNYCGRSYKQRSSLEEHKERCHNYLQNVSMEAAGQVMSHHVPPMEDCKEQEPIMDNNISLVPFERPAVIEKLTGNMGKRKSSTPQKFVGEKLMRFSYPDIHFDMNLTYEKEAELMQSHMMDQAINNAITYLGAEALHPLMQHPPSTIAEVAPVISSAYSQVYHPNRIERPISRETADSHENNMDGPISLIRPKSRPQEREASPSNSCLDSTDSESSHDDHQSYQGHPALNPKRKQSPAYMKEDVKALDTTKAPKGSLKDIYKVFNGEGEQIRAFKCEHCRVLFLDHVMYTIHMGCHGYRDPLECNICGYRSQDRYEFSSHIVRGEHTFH
T2 sequence (Q96SW2 whole entry): as the sequence (Q96SW2 whole entry) above
T2 sequence (Q16531 whole entry partner): as the sequence (Q16531 whole entry partner) above

[3] = molecular target: T3, IKZF1 (Homo sapiens, UniProt Q13422+Q96SW2); assay: as above; format: cell-based; conditions: Western blot, 24 hours of compound treatment, compounds tested at 50 nM and 500 nM (concentration for the table not stated)
T3 construct: effects of the compounds of the present disclosure on the expression of target proteins in cells; endogenous in cells; host or cells: human PBMCs (Milecell Biotechnologies)
T3 sequence (Q13422 whole entry): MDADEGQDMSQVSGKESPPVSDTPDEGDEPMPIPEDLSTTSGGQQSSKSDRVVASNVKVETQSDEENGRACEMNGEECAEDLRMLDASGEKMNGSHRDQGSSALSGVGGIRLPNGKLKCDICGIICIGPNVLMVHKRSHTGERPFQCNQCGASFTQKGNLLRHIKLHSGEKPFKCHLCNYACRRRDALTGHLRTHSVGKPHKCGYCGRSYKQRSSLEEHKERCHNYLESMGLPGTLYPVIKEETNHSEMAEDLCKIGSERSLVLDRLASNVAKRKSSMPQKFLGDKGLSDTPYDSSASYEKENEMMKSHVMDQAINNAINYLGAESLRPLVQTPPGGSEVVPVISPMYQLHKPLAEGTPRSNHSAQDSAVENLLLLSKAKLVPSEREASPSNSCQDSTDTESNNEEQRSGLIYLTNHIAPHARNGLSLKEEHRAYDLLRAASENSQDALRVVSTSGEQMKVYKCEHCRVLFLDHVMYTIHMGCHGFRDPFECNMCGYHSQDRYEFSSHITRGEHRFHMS
T3 sequence (Q96SW2 whole entry): as the sequence (Q96SW2 whole entry) above
T3 sequence (Q16531 whole entry partner): as the sequence (Q16531 whole entry partner) above

[4] = molecular target: T4, CK1α (Homo sapiens, UniProt P48729+Q96SW2); assay: as above; format: cell-based; conditions: Western blot, 24 hours of compound treatment, compounds tested at 50 nM and 500 nM (concentration for the table not stated)
T4 construct: effects of the compounds of the present disclosure on the expression of target proteins in cells; endogenous in cells; host or cells: human PBMCs (Milecell Biotechnologies)
T4 sequence (P48729 whole entry): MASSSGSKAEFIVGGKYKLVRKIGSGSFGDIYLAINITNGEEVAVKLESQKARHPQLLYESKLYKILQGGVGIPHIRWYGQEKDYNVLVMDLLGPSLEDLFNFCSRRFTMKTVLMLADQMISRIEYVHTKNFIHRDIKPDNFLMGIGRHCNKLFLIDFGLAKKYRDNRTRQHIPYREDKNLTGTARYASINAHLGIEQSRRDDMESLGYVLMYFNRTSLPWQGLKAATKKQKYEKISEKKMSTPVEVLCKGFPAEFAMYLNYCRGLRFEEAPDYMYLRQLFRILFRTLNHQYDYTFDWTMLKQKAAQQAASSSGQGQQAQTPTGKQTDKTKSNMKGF
T4 sequence (Q96SW2 whole entry): as the sequence (Q96SW2 whole entry) above
T4 sequence (Q16531 whole entry partner): as the sequence (Q16531 whole entry partner) above

[5] = molecular target: T5, WEE1 (Homo sapiens, UniProt P30291+Q96SW2); assay: as above; format: cell-based; conditions: Western blot, 24 hours of compound treatment, compounds tested at 50 nM and 500 nM (concentration for the table not stated)
T5 construct: effects of the compounds of the present disclosure on the expression of target proteins in cells; endogenous in cells; host or cells: human PBMCs (Milecell Biotechnologies)
T5 sequence (P30291 whole entry): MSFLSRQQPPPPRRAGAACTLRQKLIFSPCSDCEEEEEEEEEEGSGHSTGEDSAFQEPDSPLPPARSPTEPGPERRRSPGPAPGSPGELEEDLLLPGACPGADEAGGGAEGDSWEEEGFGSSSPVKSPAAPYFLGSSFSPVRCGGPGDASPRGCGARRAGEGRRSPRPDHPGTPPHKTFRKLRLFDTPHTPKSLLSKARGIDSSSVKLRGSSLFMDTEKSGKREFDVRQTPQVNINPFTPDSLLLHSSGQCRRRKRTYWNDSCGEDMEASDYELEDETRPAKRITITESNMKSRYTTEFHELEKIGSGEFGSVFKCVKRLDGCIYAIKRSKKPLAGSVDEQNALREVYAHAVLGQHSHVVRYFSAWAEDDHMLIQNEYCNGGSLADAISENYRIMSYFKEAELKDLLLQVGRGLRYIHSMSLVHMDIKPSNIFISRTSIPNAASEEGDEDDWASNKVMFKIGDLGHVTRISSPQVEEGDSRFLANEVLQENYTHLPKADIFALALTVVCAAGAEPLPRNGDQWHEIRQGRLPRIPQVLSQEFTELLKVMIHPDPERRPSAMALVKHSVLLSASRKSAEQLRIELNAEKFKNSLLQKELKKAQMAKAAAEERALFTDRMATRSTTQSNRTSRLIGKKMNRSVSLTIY
T5 sequence (Q96SW2 whole entry): as the sequence (Q96SW2 whole entry) above
T5 sequence (Q16531 whole entry partner): as the sequence (Q16531 whole entry partner) above

[6] = molecular target: T6, human Cereblon WT GST-tagged protein (Homo sapiens, UniProt Q96SW2); assay: CRBN-binding affinity, HTRF (CEREBLON BINDING kit); conditions: for inhibition at 0.5 µM: read-out: Inhibition Rate at 0.5 µM (%); for inhibition at 2 µM: read-out: Inhibition Rate at 2 µM (%)
T6 construct: purchased CISBIO 64BDCRBNPEH
T6 sequence (Q96SW2 whole entry): as the sequence (Q96SW2 whole entry) above

[7] = test system: GSPT1; assay: Western blot, degradation of substrate protein in hPBMCs; format: cell-based, Human; conditions: Western blot, 24 hours of compound treatment, compounds tested at 50 nM and 500 nM (concentration for the table not stated)

Compound	inhibition at 0.5 µM [6] [%]	inhibition at 2 µM [6] [%]	IKZF3 substrate protein remaining % [1]	IKZF2 substrate protein remaining % [2]	IKZF 1 substrate protein remaining % [3]	CK1α substrate protein remaining % [4]	Wee1 substrate protein remaining % [5]	GSPT1 substrate protein remaining % [7]
O=C1CCC(N2Cc3c(CN4CCN(c5ccncc5Br)CC4)cccc3C2=S)C(=O)N1 (stereo not shown) [GT-08729, 3-(4-((4-(3-bromopyridin-4-yl)piperazin-1-yl)methyl)-1-thioxoisoindolin-2-yl)piperidine-2,6-dione]	60 to 80	80 to 100	B (80%< substrate protein remaining %≤ 100%)	B (80%< substrate protein remaining %≤ 100%)	B (80%< substrate protein remaining %≤ 100%)	B (80%< substrate protein remaining %≤ 100%)	A (0% ≤ substrate protein remaining % ≤ 80%)	B (80%< substrate protein remaining %≤ 100%)
O=C1CCC(N2Cc3c(CN4CCN(c5ccncc5F)CC4)cccc3C2=S)C(=O)N1 (stereo not shown) [GT-08730, 3-(4-((4-(3-fluoropyridin-4-yl)piperazin-1-yl)methyl)-1-thioxoisoindolin-2-yl)piperidine-2,6-dione]	60 to 80	80 to 100	B (80%< substrate protein remaining %≤ 100%)	B (80%< substrate protein remaining %≤ 100%)	B (80%< substrate protein remaining %≤ 100%)	B (80%< substrate protein remaining %≤ 100%)	A (0% ≤ substrate protein remaining % ≤ 80%)	B (80%< substrate protein remaining %≤ 100%)
O=C1CCC(N2Cc3c(CN4CCN(c5ccncc5Cl)CC4)cccc3C2=S)C(=O)N1 (stereo not shown) [GT-08731, 3-(4-((4-(3-chloropyridin-4-yl)piperazin-1-yl)methyl)-1-thioxoisoindolin-2-yl)piperidine-2,6-dione]	60 to 80	80 to 100	B (80%< substrate protein remaining %≤ 100%)	B (80%< substrate protein remaining %≤ 100%)	B (80%< substrate protein remaining %≤ 100%)	B (80%< substrate protein remaining %≤ 100%)	A (0% ≤ substrate protein remaining % ≤ 80%)	A (0% ≤ substrate protein remaining % ≤ 80%)

Now from value to molecule, other results behind:

inhibition at 0.5 µM [6] [%]	inhibition at 2 µM [6] [%]	Compound	IKZF3 substrate protein remaining % [1]	IKZF2 substrate protein remaining % [2]	IKZF 1 substrate protein remaining % [3]	CK1α substrate protein remaining % [4]	Wee1 substrate protein remaining % [5]	GSPT1 substrate protein remaining % [7]
60 to 80	80 to 100	O=C1CCC(N2Cc3c(CN4CCN(c5ccnc(Cl)c5F)CC4)cccc3C2=S)C(=O)N1 (stereo not shown) [GT-08732, 3-(4-((4-(2-chloro-3-fluoropyridin-4-yl)piperazin-1-yl)methyl)-1-thioxoisoindolin-2-yl)piperidine-2,6-dione]	B (80%< substrate protein remaining %≤ 100%)	B (80%< substrate protein remaining %≤ 100%)	B (80%< substrate protein remaining %≤ 100%)	B (80%< substrate protein remaining %≤ 100%)	A (0% ≤ substrate protein remaining % ≤ 80%)	B (80%< substrate protein remaining %≤ 100%)
60 to 80	80 to 100	O=C1CCC(N2Cc3c(CN4CCN(c5ccnc(Br)c5F)CC4)cccc3C2=S)C(=O)N1 (stereo not shown) [GT-08733, 3-(4-((4-(2-bromo-3-fluoropyridin-4-yl)piperazin-1-yl)methyl)-1-thioxoisoindolin-2-yl)piperidine-2,6-dione]	B (80%< substrate protein remaining %≤ 100%)	B (80%< substrate protein remaining %≤ 100%)	B (80%< substrate protein remaining %≤ 100%)	B (80%< substrate protein remaining %≤ 100%)	A (0% ≤ substrate protein remaining % ≤ 80%)	A (0% ≤ substrate protein remaining % ≤ 80%)
60 to 80	80 to 100	O=C1CCC(N2Cc3c(CN4CCN(c5ccnc(Cl)c5Br)CC4)cccc3C2=S)C(=O)N1 (stereo not shown) [GT-08734, 3-(4-((4-(3-bromo-2-chloropyridin-4-yl)piperazin-1-yl)methyl)-1-thioxoisoindolin-2-yl)piperidine-2,6-dione]	B (80%< substrate protein remaining %≤ 100%)	B (80%< substrate protein remaining %≤ 100%)	B (80%< substrate protein remaining %≤ 100%)	B (80%< substrate protein remaining %≤ 100%)	A (0% ≤ substrate protein remaining % ≤ 80%)	A (0% ≤ substrate protein remaining % ≤ 80%)
60 to 80	80 to 100	O=C1CCC(N2Cc3c(CN4CCN(c5ccnc(Cl)c5Cl)CC4)cccc3C2=S)C(=O)N1 (stereo not shown) [GT-08735, 3-(4-((4-(2,3-dichloropyridin-4-yl)piperazin-1-yl)methyl)-1-thioxoisoindolin-2-yl)piperidine-2,6-dione]	B (80%< substrate protein remaining %≤ 100%)	B (80%< substrate protein remaining %≤ 100%)	B (80%< substrate protein remaining %≤ 100%)	B (80%< substrate protein remaining %≤ 100%)	A (0% ≤ substrate protein remaining % ≤ 80%)	B (80%< substrate protein remaining %≤ 100%)
60 to 80	80 to 100	O=C1CCC(N2Cc3c(CN4CCN(c5c(Cl)cncc5Br)CC4)cccc3C2=S)C(=O)N1 (stereo not shown) [GT-08801, 3-(4-((4-(3-bromo-5-chloropyridin-4-yl)piperazin-1-yl)methyl)-1-thioxoisoindolin-2-yl)piperidine-2,6-dione]	B (80%< substrate protein remaining %≤ 100%)	B (80%< substrate protein remaining %≤ 100%)	B (80%< substrate protein remaining %≤ 100%)	B (80%< substrate protein remaining %≤ 100%)	A (0% ≤ substrate protein remaining % ≤ 80%)	B (80%< substrate protein remaining %≤ 100%)
